# Reference: ChEMBL document CHEMBL5055643, “Sophoraflavanone G Resensitizes ABCG2-Overexpressing Multidrug-Resistant Non-Small-Cell Lung Cancer Cells to Chemotherapeutic Drugs” (J Nat Prod, 2021)
# Tests used:
# [1] = test system: NCI/ADR-RES; assay: Chemo-sensitizing activity against ABCB1-overexpressing human NCI/ADR-RES cells assessed as reversal fold at 2 uM measured after 72 hrs in presence of vincristine by CCK8 assay relative to control; assay type: functional
# [2] = test system: NCI-H460; assay: Cytotoxicity against mitoxantrone-selected ABCG2-overexpressing human NCI-H460/MX20 cells assessed as reduction in cell viability measured after 72 hrs by CCK8 assay; assay type: ADME, cell-based; details: NCI-H460, 72 h
# [3] = test system: KB-V1; assay: Chemo-sensitizing activity against ABCB1-overexpressing human KB-V1 cells assessed as reversal fold at 5 uM measured after 72 hrs in presence of paclitaxel by CCK8 assay relative to control; assay type: functional
# [4] = test system: HEK293; assay: Chemo-sensitizing activity against ABCB1-overexpressing human HEK293/MDR19 cells assessed as reversal fold at 2 uM measured after 72 hrs in presence of paclitaxel by CCK8 assay relative to control; assay type: functional
# [5] = test system: NCI-H460; assay: Chemo-sensitizing activity against human NCI-H460 cells assessed as reversal fold at 5 uM measured after 72 hrs in presence of mitoxantrone by CCK8 assay relative to control; assay type: functional
# [6] = test system: A549; assay: Chemo-sensitizing activity against human A549 cells assessed as reversal fold at 1 uM measured after 72 hrs in presence of SN-38 by CCK8 assay relative to control; assay type: functional
# [7] = test system: HEK293; assay: Chemo-sensitizing activity against human HEK293 cells assessed as reversal fold at 5 uM measured after 72 hrs in presence of colchicine by CCK8 assay relative to control; assay type: functional
# [8] = test system: NCI-H460; assay: Chemo-sensitizing activity against human NCI-H460 cells assessed as reversal fold at 1 uM measured after 72 hrs in presence of topotecan by CCK8 assay relative to control; assay type: functional
# [9] = test system: HEK293; assay: Chemo-sensitizing activity against human HEK293 cells assessed as reversal fold at 2 uM measured after 72 hrs in presence of paclitaxel by CCK8 assay relative to control; assay type: functional
# [10] = test system: OVCAR-8; assay: Chemo-sensitizing activity against human OVCAR-8 cells assessed as reversal fold at 5 uM measured after 72 hrs in presence of colchicine by CCK8 assay relative to control; assay type: functional
# [11] = test system: NCI-H460; assay: Chemo-sensitizing activity against mitoxantrone-selected ABCG2-overexpressing human NCI-H460/MX20 cells assessed as reversal fold at 5 uM measured after 72 hrs in presence of topotecan by CCK8 assay relative to control; assay type: functional
# [12] = test system: A549; assay: Chemo-sensitizing activity against human A549 cells assessed as reversal fold at 1 uM measured after 72 hrs in presence of topotecan by CCK8 assay relative to control; assay type: functional
# [13] = test system: A549; assay: Chemo-sensitizing activity against becatecarin-selected ABCG2-overexpressing human A549/Bec150 cells assessed as reversal fold at 5 uM measured after 72 hrs in presence of mitoxantrone by CCK8 assay relative to control; assay type: functional
# [14] = test system: A549; assay: Chemo-sensitizing activity against becatecarin-selected ABCG2-overexpressing human A549/Bec150 cells assessed as reversal fold at 5 uM measured after 72 hrs in presence of topotecan by CCK8 assay relative to control; assay type: functional
# [15] = test system: HEK293; assay: Chemo-sensitizing activity against ABCB1-overexpressing human HEK293/MDR19 cells assessed as reversal fold at 1 uM measured after 72 hrs in presence of colchicine by CCK8 assay relative to control; assay type: functional
# [16] = test system: KB 3-1; assay: Chemo-sensitizing activity against human KB 3-1 cells assessed as reversal fold at 2 uM measured after 72 hrs in presence of colchicine by CCK8 assay relative to control; assay type: functional
# [17] = test system: ABCG2; assay: Resistance factor, ratio of IC50 for ABCG2-overexpressing human HEK293/482R cells to IC50 for human HEK293 cells; assay type: ADME; details: read-out: Ratio IC50
# [18] = test system: HEK293; assay: Cytotoxicity against human HEK293 cells assessed as reduction in cell viability measured after 72 hrs by CCK8 assay; assay type: cell-based; details: HEK293, 72 h
# [19] = test system: A549; assay: Cytotoxicity against becatecarin-selected ABCG2-overexpressing human A549/Bec150 cells assessed as reduction in cell viability measured after 72 hrs by CCK8 assay; assay type: ADME, cell-based; details: A549, 72 h
# [20] = test system: NCI-H460; assay: Chemo-sensitizing activity against mitoxantrone-selected ABCG2-overexpressing human NCI-H460/MX20 cells assessed as reversal fold at 5 uM measured after 72 hrs in presence of mitoxantrone by CCK8 assay relative to control; assay type: functional
# [21] = test system: A549; assay: Chemo-sensitizing activity against becatecarin-selected ABCG2-overexpressing human A549/Bec150 cells assessed as reversal fold at 2 uM measured after 72 hrs in presence of topotecan by CCK8 assay relative to control; assay type: functional
# [22] = test system: A549; assay: Chemo-sensitizing activity against human A549 cells assessed as reversal fold at 1 uM measured after 72 hrs in presence of mitoxantrone by CCK8 assay relative to control; assay type: functional
# [23] = test system: A549; assay: Chemo-sensitizing activity against human A549 cells assessed as reversal fold at 2 uM measured after 72 hrs in presence of SN-38 by CCK8 assay relative to control; assay type: functional
# [24] = test system: KB 3-1; assay: Chemo-sensitizing activity against human KB 3-1 cells assessed as reversal fold at 2 uM measured after 72 hrs in presence of vincristine by CCK8 assay relative to control; assay type: functional
smiles,measurement,setting,value
C=C(C)[C@H](CC=C(C)C)Cc1c(O)cc(O)c2c1O[C@H](c1ccc(O)cc1O)CC2=O [SOPHORAFLAVANONE G],fold change (FC),[1],1
same,IC50,[2],22.1 µM
same,fold change (FC),[3],1.6
same,fold change (FC),[4],1.2
same,fold change (FC),[5],2.2
same,fold change (FC),[6],1
same,fold change (FC),[7],1
same,fold change (FC),[8],1.6
same,fold change (FC),[9],1
same,fold change (FC),[10],1.1
same,fold change (FC),[11],7.8
same,fold change (FC),[12],1.1
same,fold change (FC),[13],9.1
same,fold change (FC),[14],2.9
same,fold change (FC),[15],0.8
same,fold change (FC),[16],1.1
same,selectivity ratio,[17],1.4
same,IC50,[18],35.1 µM
same,IC50,[19],21.3 µM
same,fold change (FC),[20],7.6
same,fold change (FC),[21],1.8
same,fold change (FC),[22],1.2
same,fold change (FC),[23],1.1
same,fold change (FC),[24],1.2
